Measurements published in patent publication US20050164323A1, “Methods of treating asthma” (Wyeth, priority 2003, published 2005).
“Also recorded” adds a separate entry of the source. Values belong to the molecule of their own block, whether it stands above or below them. Non-standard residues stand in square brackets, D forms with d. Residues, ends and D or L forms follow the SMILES beside them. pS = N[C@@H](COP(=O)(O)O)C(=O)O

Columns and labels:
Assay type in all cases: biochemical
PKC-θ KD [1] = molecular target: T1, PKC-θ KD (Homo sapiens, UniProt Q04759); experiment: HPLC assay: thio effect with ATPγS and product inhibition with ADP; settings: for pattern / Ki: product inhibition; for appKm / rate: peptide1 used in assay
T1 construct: PKC-θ KD (amino acid residues 362 to 706) was cloned into a pET16b expression vector; hexa-histidine (C); Met-Gly (non-native N-terminal residues) (N); made in house; host or cells: E. coli BL21-DE3 (pET16b)
T1 sequence (Q04759 with tags, fused parts or gaps): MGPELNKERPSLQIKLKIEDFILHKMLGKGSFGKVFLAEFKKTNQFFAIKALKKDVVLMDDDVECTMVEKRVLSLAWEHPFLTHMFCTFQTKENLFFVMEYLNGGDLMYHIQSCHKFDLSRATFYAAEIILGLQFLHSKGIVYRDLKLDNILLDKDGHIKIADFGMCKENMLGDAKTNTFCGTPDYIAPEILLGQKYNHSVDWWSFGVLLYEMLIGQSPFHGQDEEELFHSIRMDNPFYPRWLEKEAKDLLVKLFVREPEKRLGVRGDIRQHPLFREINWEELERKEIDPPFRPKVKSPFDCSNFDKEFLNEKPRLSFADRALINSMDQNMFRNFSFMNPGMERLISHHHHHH

PKC-θ KD [2] = molecular target: T1, PKC-θ KD; experiment: coupled PK/LDH assay: steady-state kinetics, product and dead-end inhibition of PKC-θ KD; settings: for substrate inhibition: high peptide concentrations
PKC-θ KD [3] = molecular target: T1, PKC-θ KD; experiment: solvent viscosity studies (sucrose, Ficoll 400) on steady state kinetic parameters; settings: from viscosity analysis
Method: Next, solvent viscosity studies were performed. Steady state kinetic parameters were determined in the buffer described above for the enzyme kinetics assays containing varied sucrose (0-35%) or Ficoll 400 (0-8%). Relative solvent viscosities (η^ref) were determined in triplicate relative to 25 mM HEPES pH 7.5, 10 mM MgCl2, 2 mM DTT and 100 mM NaCl at 25° C. using an Ostwald viscometer. Buffer with no viscogen is indicated with a superscript of 0. The coupling enzyme system was unaffected by the presence of these viscogens. Thio effect studies with ATPγS and product inhibition studies with ADP were analyzed on a Hewlett Packard series 1100 HPLC using a Phenomenex Auga […] C18 124 A^0 50 mm×4.60 […] column (00B-4299-E0). Phosphorylated peptide was separated from non-phosphorylated peptide using a gradient of 0% to 100% 20 mM phosphate pH 8.8/acetonitrile (50/50). The fluorescein-labeled peptide was detected by excitation at 485 nm and monitoring the fluorescence emission at 530 nm.
To determine if the chemical step is the lone contributor to the rate of the reaction, the effect of solvent viscosity on the steady state kinetic parameters for PKC-θ was determined. Two types of viscogens were employed in this study, the microviscogen sucrose and the macroviscogen Ficoll-400. […]

[4] = dead-end inhibition against peptide 1 at saturating ATP (AMP-PNP up to 2.0 mM)
[5] = dead-end inhibition, varied substrate ATP, 100 mM NaCl
[6] = substrate inhibition, fit to equation (2), saturating ATP, read-out: Ki peptide
[7] = varied peptide substrate, saturating ATP
[8] = varied substrate peptide3, saturating ATP, 100 mM NaCl, read-out: Kis

Molecule: Nc1ncnc2c1ncn2[C@@H]1O[C@H](COP(=O)(O)OP(=O)(O)O)[C@@H](O)[C@H]1O [ADP]
inhibition pattern in words (PKC-θ KD [1]; against ATP at saturating peptide 1): competitive inhibitor; also recorded: competitive pattern | inhibition pattern in words (PKC-θ KD [1]; against peptide 1 at non-saturating ATP (0.1 mM)): non-competitive pattern | inhibition pattern in words (PKC-θ KD [1]; against peptide 1 at saturating ATP): no inhibition observed | pattern (PKC-θ KD [1]; varied substrate ATP, saturating peptide 1, 100 mM NaCl): c (c, competitive) | Ki (PKC-θ KD [1]; varied substrate ATP, saturating peptide 1, 100 mM NaCl, read-out: Kis): 291 µM | pattern (PKC-θ KD [1]; varied substrate peptide1, ATP held at 0.1 mM, 100 mM NaCl): nc (nc, noncompetitive) | Ki (PKC-θ KD [1]; varied substrate peptide1, ATP held at 0.1 mM, 100 mM NaCl, read-out: Kii): 200 µM | Ki (PKC-θ KD [1]; varied substrate peptide1, ATP held at 0.1 mM, 100 mM NaCl, read-out: Kis): 494 µM

Molecule: Nc1ncnc2c1ncn2[C@@H]1O[C@H](COP(=O)(O)OP(=O)(O)NP(=O)(O)O)[C@@H](O)[C@H]1O [AMP-PNP]
inhibition pattern in words (PKC-θ KD [2]; dead-end inhibition against ATP): competitive inhibitor | inhibition pattern in words (PKC-θ KD [2]; [4]): no observed inhibition | pattern (PKC-θ KD [2]; [5]): c (c, competitive) | Ki (PKC-θ KD [2]; dead-end inhibition, varied substrate ATP, 100 mM NaCl, read-out: Kis): 228 µM

Molecule: Nc1ncnc2c1ncn2[C@@H]1O[C@H](COP(=O)(O)OP(=O)(O)OP(=O)(O)O)[C@@H](O)[C@H]1O [ATP, adenosine triphosphate]
appKm ATP (PKC-θ KD [2]; 0 mM NaCl, 0.2 mM peptide1): 25 ± 5 µM | kcat (PKC-θ KD [2]; 100 mM NaCl, fit to equation (1)): 22 ± 1 s⁻¹ | kcat (PKC-θ KD [2]; 250 mM NaCl, fit to equation (1)): 24 ± 1 s⁻¹ | ATP hydrolysis slower in absence of peptide substrate than when peptide is present (PKC-θ KD [2]; no peptide vs peptide present): 110 times | kcat (PKC-θ KD [2]; varied ATP, peptide1 present): 18 s⁻¹

Molecule: LKRSLSEM [peptide3, substrate derived from the phosphorylation site in serum response factor]
substrate inhibition (PKC-θ KD [2]): not observed | appKm (PKC-θ KD [2]; [7]): 420 ± 21 µM | kcat (PKC-θ KD [2]; [7]): 21 ± 1 s⁻¹ | appKm (PKC-θ KD [2]; varied peptide substrate, saturating ATP, listed as Peptide 3): 420 µM | stickiness of substrate (PKC-θ KD [3]): not sticky

The next lines start with results.

ratio ATP/ATPγS of appKm (PKC-θ KD [1]; 100 mM NaCl): 2.1 | ratio ATP/ATPγS of rate (thio effect) (PKC-θ KD [1]; 100 mM NaCl): 112 | appKm (PKC-θ KD [1]; 100 mM NaCl): 120 ± 9 µM | ratio ATP/ATPγS of appKm (PKC-θ KD [1]; 250 mM NaCl): 1.8 | ratio ATP/ATPγS of rate (thio effect) (PKC-θ KD [1]; 250 mM NaCl): 146 | appKm (PKC-θ KD [1]; 250 mM NaCl): 130 ± 5 µM
Molecule: Nc1ncnc2c1ncn2[C@@H]1O[C@H](COP(=O)(O)OP(=O)(O)OP(O)(O)=S)[C@@H](O)[C@H]1O [ATPγS]
rate (PKC-θ KD [1]; 100 mM NaCl): 1.6 ± 0.1 peak area/(reaction time in minutes)([enzyme] nM) | rate (PKC-θ KD [1]; 250 mM NaCl): 1.3 ± 0.1 peak area/(reaction time in minutes)([enzyme] nM)

Ki (PKC-θ KD [2]; 0 mM NaCl, read-out: substrate inhibition): 129 µM | Ki (PKC-θ KD [2]; 50 mM NaCl, substrate inhibition, read-out: Ki peptide1): 201 ± 85 µM | Ki (PKC-θ KD [2]; 100 mM NaCl, substrate inhibition, read-out: Ki peptide1): > 2000 µM | Ki (PKC-θ KD [2]; [6]): > 2000 µM
Molecule: CC(C)C[C@H](NC(=O)[C@H](CO)NC(=O)CNC(=O)[C@H](CCCCN)NC(=O)[C@H](CCCNC(=N)N)NC(=O)[C@H](C)NC(=O)[C@@H](N)Cc1ccccc1)C(=O)N[C@@H](CCCNC(=N)N)C(=O)N[C@@H](CCC(N)=O)C(=O)O [peptide1] (H-FARKGSLRQ-OH)

substrate inhibition (PKC-θ KD [2]): observed | Ki (PKC-θ KD [2]; [6]): 306 ± 57 µM | appKm (PKC-θ KD [2]; [7]): 4.3 ± 0.8 µM | appKm (PKC-θ KD [2]; varied peptide substrate, saturating ATP, listed as peptide 2): 4.3 µM
Molecule: CC(C)C[C@H](NC(=O)[C@H](CO)NC(=O)CNC(=O)[C@H](CCCCN)NC(=O)[C@H](CCCNC(=N)N)NC(=O)[C@H](C)NC(=O)[C@H](Cc1ccccc1)NC(=O)[C@@H](N)CCCNC(=N)N)C(=O)N[C@@H](CCCNC(=N)N)C(=O)N[C@@H](CCC(N)=O)C(=O)N[C@@H](CCCCN)C(=O)N[C@@H](CC(N)=O)C(=O)N[C@H](C(=O)O)C(C)C [peptide2] (H-RFARKGSLRQKNV-OH; N-terminus and C-terminus assumed)

inhibition pattern in words (PKC-θ KD [2]; against peptide 3 at saturating ATP): competitive inhibitor | inhibition pattern in words (PKC-θ KD [2]; dead-end inhibition against ATP, listed as Peptide 5): uncompetitive inhibitor | inhibition pattern in words (PKC-θ KD [2]; dead-end inhibition against ATP, listed as peptide 5): un-competitive | inhibition pattern in words (PKC-θ KD [2]; [4]): competitive inhibitor | pattern (PKC-θ KD [2]; [5]): uc (uc, uncompetitive) | Ki (PKC-θ KD [2]; dead-end inhibition, varied substrate ATP, 100 mM NaCl, read-out: Kii): 1100 µM | pattern (PKC-θ KD [2]; dead-end inhibition, varied substrate peptide1, saturating ATP, 100 mM NaCl): c (c, competitive) | Ki (PKC-θ KD [2]; dead-end inhibition, varied substrate peptide1, saturating ATP, 100 mM NaCl, read-out: Kis): 10 µM | pattern (PKC-θ KD [2]; varied substrate peptide3, saturating ATP, 100 mM NaCl): c (c, competitive) | Ki (PKC-θ KD [2]; [8]): 4.4 µM
Molecule: CC(C)C[C@H](NC(=O)[C@H](C)NC(=O)CNC(=O)[C@H](CCCCN)NC(=O)[C@H](CCCNC(=N)N)NC(=O)[C@H](C)NC(=O)[C@@H](N)Cc1ccccc1)C(=O)N[C@@H](CCCNC(=N)N)C(=O)N[C@@H](CCC(N)=O)C(=O)O [peptide5] (H-FARKGALRQ-OH; N-terminus and C-terminus assumed)

Ki (PKC-θ KD [2]; varied substrate ATP, peptide3 held at 0.5 mM, 100 mM NaCl, read-out: Kii): 1600 µM | Ki (PKC-θ KD [2]; varied substrate peptide3, ATP held at 0.1 mM, 100 mM NaCl, read-out: Kii): 2000 µM | Ki (PKC-θ KD [2]; varied substrate peptide3, saturating ATP, 100 mM NaCl, read-out: Kii): 1200 µM | Ki (PKC-θ KD [2]; [8]): 1700 µM
Molecule: CC(C)C[C@H](NC(=O)[C@H](COP(=O)(O)O)NC(=O)CNC(=O)[C@H](CCCCN)NC(=O)[C@H](CCCNC(=N)N)NC(=O)[C@H](C)NC(=O)[C@@H](N)Cc1ccccc1)C(=O)N[C@@H](CCCNC(=N)N)C(=O)N[C@@H](CCC(N)=O)C(=O)O [phosphopeptide1] (H-FARKG[pS]LRQ-OH)

substrate inhibition (PKC-θ KD [2]): not observed | appKm (PKC-θ KD [2]; [7]): 240 ± 16 µM | kcat (PKC-θ KD [2]; [7]): 14 ± 1 s⁻¹ | appKm (PKC-θ KD [2]; varied peptide substrate, saturating ATP, listed as peptide 4): 240 µM
Molecule: RTPKLARQASIELPSM [peptide4, substrate derived from the phosphorylation site in lymphocyte-specific protein-1]
